Values of other authors, collected in US6344444B1 (Nutrition 21, priority 1997, dated 2002).

Tests used:
femoral density = settings: postmenopausal women, injection 50 mg twice weekly, over 14 months
[1] = test system: cholesterol-induced intimal hyperplasia; settings: rabbits, injection or ingestion
bone turnover = settings: ovariectomized rats, oral

C[Si](O)(O)O [monomethyltrisilanol]
increase of femoral density (average) (femoral density): 4.7%
intimal thickening and fragmentation of arterial elastic fibers [1]: prevented

orthosilicic acid
bone formation rate (bone turnover): increased
bone turnover (bone turnover): slowed

NCCCC[C@H](N)C(=O)O.O[Si](O)(O)O [lysine silicate]
intimal thickening and fragmentation of arterial elastic fibers [1]: prevented
